Measurements taken from PubChem BioAssay (NCI).
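The compound was tested at five concentrations on cells cultured in 96-well plates, with a 48-hour exposure period. TGI marks complete inhibition of growth.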

Tests used:
Assay in all cases: growth of human tumour cells (NCI), 48 h
CAKI-1 renal = tested on: CAKI-1 renal
NCI-H226 lung = tested on: NCI-H226 lung
OVCAR-4 ovarian = tested on: OVCAR-4 ovarian
U251 CNS = tested on: U251 CNS
SR leukemia = tested on: SR leukemia
786-0 renal = tested on: 786-0 renal
HOP-92 NSCLC = tested on: HOP-92 NSCLC
HCT-15 colon = tested on: HCT-15 colon
NCI/ADR-RES ovarian = tested on: NCI/ADR-RES ovarian
SF-295 CNS = tested on: SF-295 CNS
HS 578T breast = tested on: HS 578T breast
HT29 colon = tested on: HT29 colon
SF-268 CNS = tested on: SF-268 CNS
UACC-62 melanoma = tested on: UACC-62 melanoma
HCT-116 colon = tested on: HCT-116 colon
HL-60(TB) leukemia = tested on: HL-60(TB) leukemia
A549 NSCLC = tested on: A549 NSCLC
MCF7 breast = tested on: MCF7 breast
BT-549 breast = tested on: BT-549 breast

O=[N+]([O-])/C(C(Cl)=C(Cl)Cl)=C(/Nc1ccccc1)SCc1ccccc1
TGI (CAKI-1 renal): 68.7 µM | TGI (NCI-H226 lung): 44.6 µM | TGI (OVCAR-4 ovarian): 66.8 µM | TGI (U251 CNS): 34.6 µM | TGI (SR leukemia): 52.3 µM | TGI (786-0 renal): 31.1 µM | TGI (HOP-92 NSCLC): 60.5 µM | TGI (HCT-15 colon): 29.7 µM | TGI (NCI/ADR-RES ovarian): 31.1 µM | TGI (SF-295 CNS): 90 µM | TGI (HS 578T breast): 75.5 µM | TGI (HT29 colon): 66.1 µM | TGI (SF-268 CNS): 43.4 µM | TGI (UACC-62 melanoma): 44.6 µM | TGI (HCT-116 colon): 30.2 µM | TGI (HL-60(TB) leukemia): 40.2 µM | TGI (A549 NSCLC): 33.5 µM

COc1cc(C(C)=O)cc(C(=O)N(C(C)C)C(C)C)c1[Si](C)(C)C
TGI (CAKI-1 renal): > 100 µM | TGI (NCI-H226 lung): > 100 µM | TGI (OVCAR-4 ovarian): > 100 µM | TGI (U251 CNS): > 100 µM | TGI (786-0 renal): > 100 µM | TGI (MCF7 breast): > 100 µM | TGI (BT-549 breast): > 100 µM | TGI (HOP-92 NSCLC): > 100 µM | TGI (HCT-15 colon): > 100 µM | TGI (SF-295 CNS): > 100 µM | TGI (HS 578T breast): > 100 µM | TGI (SF-268 CNS): > 100 µM | TGI (UACC-62 melanoma): > 100 µM | TGI (HCT-116 colon): > 100 µM | TGI (HL-60(TB) leukemia): > 100 µM | TGI (A549 NSCLC): > 100 µM

CC(C)CC(NC(=O)C(CI)Cc1ccccc1)C(=O)Nc1ccccc1 (stereo not drawn)
TGI (CAKI-1 renal): > 100 µM | TGI (OVCAR-4 ovarian): > 100 µM | TGI (U251 CNS): > 100 µM | TGI (SR leukemia): > 100 µM | TGI (786-0 renal): > 100 µM | TGI (MCF7 breast): > 100 µM | TGI (BT-549 breast): 57 µM | TGI (HOP-92 NSCLC): > 100 µM | TGI (HCT-15 colon): > 100 µM | TGI (NCI/ADR-RES ovarian): > 100 µM | TGI (SF-295 CNS): > 100 µM | TGI (UACC-62 melanoma): > 100 µM | TGI (HCT-116 colon): > 100 µM | TGI (HL-60(TB) leukemia): > 100 µM | TGI (A549 NSCLC): > 100 µM

O=C(O)c1nc2ccc(C(F)(F)F)cc2nc1NCc1ccc(F)cc1
TGI (CAKI-1 renal): > 100 µM | TGI (NCI-H226 lung): > 100 µM | TGI (OVCAR-4 ovarian): > 100 µM | TGI (U251 CNS): 56.9 µM | TGI (SR leukemia): 42 µM | TGI (786-0 renal): 28 µM | TGI (MCF7 breast): 68.8 µM | TGI (BT-549 breast): 90.2 µM | TGI (HOP-92 NSCLC): 45.3 µM | TGI (HCT-15 colon): 87.5 µM | TGI (NCI/ADR-RES ovarian): > 100 µM | TGI (SF-295 CNS): 81.1 µM | TGI (UACC-62 melanoma): 35.1 µM | TGI (HCT-116 colon): 29.4 µM | TGI (A549 NSCLC): 42.2 µM

N#CC1=C(Nc2ccccc2)SC=C(c2ccccc2)NC1=NCc1ccccc1
TGI (CAKI-1 renal): > 100 µM | TGI (OVCAR-4 ovarian): > 100 µM | TGI (U251 CNS): > 100 µM | TGI (SR leukemia): 59.1 µM | TGI (786-0 renal): > 100 µM | TGI (MCF7 breast): > 100 µM | TGI (HCT-15 colon): > 100 µM | TGI (NCI/ADR-RES ovarian): > 100 µM | TGI (SF-268 CNS): > 100 µM | TGI (UACC-62 melanoma): > 100 µM | TGI (HCT-116 colon): > 100 µM | TGI (A549 NSCLC): > 100 µM

COC(=O)[C@H](Cc1c[nH]c2ccccc12)NC(=O)c1ccc(CNC(=O)/C(C)=C/c2ccccc2)cc1
TGI (CAKI-1 renal): > 100 µM | TGI (NCI-H226 lung): > 100 µM | TGI (OVCAR-4 ovarian): > 100 µM | TGI (U251 CNS): > 100 µM | TGI (SR leukemia): > 100 µM | TGI (786-0 renal): > 100 µM | TGI (MCF7 breast): > 100 µM | TGI (BT-549 breast): > 100 µM | TGI (HOP-92 NSCLC): 34.3 µM | TGI (HCT-15 colon): > 100 µM | TGI (NCI/ADR-RES ovarian): > 100 µM | TGI (SF-295 CNS): > 100 µM | TGI (HT29 colon): > 100 µM | TGI (SF-268 CNS): > 100 µM | TGI (UACC-62 melanoma): 41.7 µM | TGI (HCT-116 colon): > 100 µM | TGI (A549 NSCLC): > 100 µM

CC(CO)CCNc1ncnc2c1ncn2CCC(=O)OC(C)(C)C (stereo not drawn)
TGI (CAKI-1 renal): > 100 µM | TGI (NCI-H226 lung): > 100 µM | TGI (OVCAR-4 ovarian): > 100 µM | TGI (SR leukemia): > 100 µM | TGI (786-0 renal): > 100 µM | TGI (MCF7 breast): > 100 µM | TGI (HOP-92 NSCLC): > 100 µM | TGI (NCI/ADR-RES ovarian): > 100 µM | TGI (SF-295 CNS): > 100 µM | TGI (HS 578T breast): > 100 µM | TGI (HT29 colon): > 100 µM | TGI (SF-268 CNS): > 100 µM | TGI (UACC-62 melanoma): > 100 µM | TGI (HCT-116 colon): > 100 µM | TGI (HL-60(TB) leukemia): > 100 µM | TGI (A549 NSCLC): > 100 µM
